# Test results as given in PMC5601486, “Identification of 4-phenylquinolin-2(1H)-one as a specific allosteric inhibitor of Akt” (Scientific Reports, 2017).
# Assays:
# [1] = system: JAK1(JH2domain-pseudokinase); assay: KINOMEscan; conditions: 50000 nM
# Description: KINOMEscan™ selectivity screen
# (§1) The assay was perfor med at DiscoveRx Corporation according the methods published previously5. Briefly, Kinase-tagged T7 phage strains were grown in parallel in an E. coli host derived from the BL21 strain. E. coli were grown to log-phase and infected with T7 phage from a frozen stock and incubated with shaking at 32°C until lysis (90-150 minutes). The kinases were produced in HEK-293 cells and subsequently tagged with DNA for qPCR detection. Streptavidin-coated magnetic beads were treated with biotinylated small molecule ligands to generate affinity resins for kinase
# (§2) inhibitor or DMSO control was performed in polypropylene 384-well plates for 1 hr at room temperature. After wash with PBS buffer containing 0.05% Tween 20, the beads were incubated in elution buffer (PBS containing 0.05 % Tween 20 and 0.5 μM non-biotinylated affinity ligand) for 30 minutes at room temperature. The kinase concentration in the eluates was measured by qPCR.
# [2] = system: PAK2; assay: KINOMEscan; conditions: 50000 nM
# Description: KINOMEscan™ selectivity screen
# as §1, §2
# [3] = system: RAF1; assay: KINOMEscan; conditions: 50000 nM
# Description: KINOMEscan™ selectivity screen
# as §1, §2
# [4] = system: MTOR; assay: KINOMEscan; conditions: 50000 nM
# Description: KINOMEscan™ selectivity screen
# as §1, §2
# [5] = system: FLT3(R834Q); assay: KINOMEscan; conditions: 50000 nM
# Description: KINOMEscan™ selectivity screen
# The assay was perfor med at DiscoveRx Corporation according the methods published previously5. […] The kinases were produced in HEK-293 cells and subsequently tagged with DNA for qPCR detection. Streptavidin-coated magnetic beads were treated with biotinylated small molecule ligands to generate affinity resins for kinase
# as §2
# [6] = system: MYO3B; assay: KINOMEscan; conditions: 50000 nM
# Description: KINOMEscan™ selectivity screen
# as §1, §2
# [7] = system: MAP3K4; assay: KINOMEscan; conditions: 50000 nM
# Description: KINOMEscan™ selectivity screen
# as §1, §2
# [8] = system: AXL; assay: KINOMEscan; conditions: 50000 nM
# Description: KINOMEscan™ selectivity screen
# as §1, §2
# [9] = system: HPK1; assay: KINOMEscan; conditions: 50000 nM
# Description: KINOMEscan™ selectivity screen
# as §1, §2
# [10] = system: PIK4CB; assay: KINOMEscan; conditions: 50000 nM
# Description: KINOMEscan™ selectivity screen
# as §1, §2
# [11] = system: TAK1; assay: KINOMEscan; conditions: 50000 nM
# Description: KINOMEscan™ selectivity screen
# (§3) Briefly, Kinase-tagged T7 phage strains were grown in parallel in an E. coli host derived from the BL21 strain. E. coli were grown to log-phase and infected with T7 phage from a frozen stock and incubated with shaking at 32°C until lysis (90-150 minutes). The kinases were produced in HEK-293 cells and subsequently tagged with DNA for qPCR detection. Streptavidin-coated magnetic beads were treated with biotinylated small molecule ligands to generate affinity resins for kinase
# as §2
# [12] = system: FLT3-autoinhibited; assay: KINOMEscan; conditions: 50000 nM
# Description: KINOMEscan™ selectivity screen
# as §1, §2
# [13] = system: EPHB2; assay: KINOMEscan; conditions: 50000 nM
# Description: KINOMEscan™ selectivity screen
# as §1, §2
# [14] = system: CSF1R; assay: KINOMEscan; conditions: 50000 nM
# Description: KINOMEscan™ selectivity screen
# as §1, §2
# [15] = system: PIK3CA(H1047Y); assay: KINOMEscan; conditions: 50000 nM
# Description: KINOMEscan™ selectivity screen
# as §1, §2
# [16] = system: BUB1; assay: KINOMEscan; conditions: 50000 nM
# Description: KINOMEscan™ selectivity screen
# as §1, §2
# [17] = system: MAP3K15; assay: KINOMEscan; conditions: 50000 nM
# Description: KINOMEscan™ selectivity screen
# as §3, §2
# [18] = system: ALK(L1196M); assay: KINOMEscan; conditions: 50000 nM
# Description: KINOMEscan™ selectivity screen
# as §1, §2
# [19] = system: PLK4; assay: KINOMEscan; conditions: 50000 nM
# Description: KINOMEscan™ selectivity screen
# as §1, §2
# [20] = system: mTORC2; assay: Western blot of mTOR S2481 phosphorylation; type: cell-based, Mouse; conditions: all concentrations tested including 80 µM
# Description: Neuro 2A cells were seeded in 12-well plates in DMEM containing 5% FBS for 24 hr.
# After overnight serum starvation (in 0% FBS DMEM), cells were incubated for 30 min at 37 °C with G7 or LY294002 or Torin 1 (Sigma Aldrich) at various concentrations, or DMSO control. IGF-1 was added to each well at a final concentration of 100 ng/mL. After 30-min incubation cells were washed with cold PBS and lysed with 50 µL lysis buffer containing 1% Triton X-100 and protease/phosphatase inhibitors (Cell Signaling Technology) or RIPA buffer (Santa Cruz Biotech). Samples were electrophoresed in 4–12% Bis-Tris gels (Life Technologies) at 150 V using MOPS SDS running buffer. Proteins were transferred electrophoretically to a PVDF or nitrocellulose membrane. For detection of cleaved […]
# caspase 3 a Trans-Blot Turbo Transfer System (Bio-Rad, 25 V for 25 min) with PVDF membrane were used. […]
# anti- GAPDH (14C10) antibody (#2118) (all antibodies were from Cell Signaling Technology unless indicated, 1:1000 dilution was used) at 4°C overnight, washed three times with TBS-T, then incubated with peroxidase-conjugated secondary antibody (Sigma-Aldrich) for 1 hr at room temperature. […] Band intensity was quantitated using Kodak 1D imaging analysis software. […]
# [21] = system: FLT3(ITD,F691L); assay: KINOMEscan; conditions: 50000 nM
# Description: KINOMEscan™ selectivity screen
# as §1, §2
# [22] = system: ANKK1; assay: KINOMEscan; conditions: 50000 nM
# Description: KINOMEscan™ selectivity screen
# as §1, §2
# [23] = system: ERK8; assay: KINOMEscan; conditions: 50000 nM
# Description: KINOMEscan™ selectivity screen
# as §1, §2
# [24] = system: KIT-autoinhibited; assay: KINOMEscan; conditions: 50000 nM
# Description: KINOMEscan™ selectivity screen
# as §1, §2
# [25] = system: CLK2; assay: KINOMEscan; conditions: 50000 nM
# Description: KINOMEscan™ selectivity screen
# as §1, §2
# [26] = system: PHKG2; assay: KINOMEscan; conditions: 50000 nM
# Description: KINOMEscan™ selectivity screen
# as §3, §2
# [27] = system: BMPR2; assay: KINOMEscan; conditions: 50000 nM
# Description: KINOMEscan™ selectivity screen
# as §1, §2
# [28] = system: TNIK; assay: KINOMEscan; conditions: 50000 nM
# Description: KINOMEscan™ selectivity screen
# as §3, §2
# [29] = system: PIK3C2B; assay: KINOMEscan; conditions: 50000 nM
# Description: KINOMEscan™ selectivity screen
# as §3, §2
# [30] = system: HIPK1; assay: KINOMEscan; conditions: 50000 nM
# Description: KINOMEscan™ selectivity screen
# as §3, §2
# [31] = system: EPHA4; assay: KINOMEscan; conditions: 50000 nM
# Description: KINOMEscan™ selectivity screen
# as §3, §2
# [32] = system: INSRR; assay: KINOMEscan; conditions: 50000 nM
# Description: KINOMEscan™ selectivity screen
# as §1, §2
# [33] = system: RSK1(Kin.Dom.2-C-terminal); assay: KINOMEscan; conditions: 50000 nM
# Description: KINOMEscan™ selectivity screen
# as §1, §2
# [34] = system: TGFBR2; assay: KINOMEscan; conditions: 50000 nM
# Description: KINOMEscan™ selectivity screen
# as §1, §2
# [35] = system: WEE1; assay: KINOMEscan; conditions: 50000 nM
# Description: KINOMEscan™ selectivity screen
# as §1, §2
# [36] = system: PRKCH; assay: KINOMEscan; conditions: 50000 nM
# Description: KINOMEscan™ selectivity screen
# The kinases were produced in HEK-293 cells and subsequently tagged with DNA for qPCR detection. Streptavidin-coated magnetic beads were treated with biotinylated small molecule ligands to generate affinity resins for kinase
# as §2
smiles,measurement,setting,value
"Oc1cc(-c2ccccc2)c2ccccc2n1 [G7, 4-phenylquinolin-2(1H)-one]",Percent Control,[1],5.5%
same,Percent Control,[2],68%
same,Percent Control,[3],95%
same,Percent Control,[4],100%
same,Percent Control,[5],76%
same,Percent Control,[6],100%
same,Percent Control,[7],100%
same,Percent Control,[8],42%
same,Percent Control,[9],98%
same,Percent Control,[10],64%
same,Percent Control,[11],61%
same,Percent Control,[12],54%
same,Percent Control,[13],93%
same,Percent Control,[14],7.4%
same,Percent Control,[15],100%
same,Percent Control,[16],85%
same,Percent Control,[17],71%
same,Percent Control,[18],85%
same,Percent Control,[19],80%
same,phosphorylation of mTORC2 at S2481,[20],did not inhibit
same,Percent Control,[21],40%
same,Percent Control,[22],73%
same,Percent Control,[23],46%
same,Percent Control,[24],77%
same,Percent Control,[25],64%
same,Percent Control,[26],91%
same,Percent Control,[27],82%
same,Percent Control,[28],60%
same,Percent Control,[29],100%
same,Percent Control,[30],74%
same,Percent Control,[31],93%
same,Percent Control,[32],64%
same,Percent Control,[33],39%
same,Percent Control,[34],100%
same,Percent Control,[35],100%
same,Percent Control,[36],75%
